Where “and” joins values, the source holds several entries; their conditions need not be identical. Equal values may be shown once. Read-outs that look alike come from different tables or passages of the source.
Experiments:
[1] = system: tobacco callus Nicotiana tabacum L. cv. Wisconsin 38; experiment: Cytokinin-dependent tobacco callus growth; format: cell-based; conditions: fresh callus weight at the concentration with highest activity
Experimental: Cytokinin-dependent tobacco callus Nicotiana tabacum L. cv. Wisconsin 38 was maintained at 25° C. in darkness on modified Murashige-Skoog medium, containing per 1 liter: 4 μmol nicotinic acid, 2.4 μmol pyridoxine hydrochloride, 1.2 μmol thiamine, 26.6 μmol glycine, 1.37 μmol glutamine, 1.8 μmol myo-inositol, 30 g of sucrose, 8 g of agar, 5.37 μmol α-naphtylacetic acid (NAA) and 0.5 μmol benzylaminopurine (BAP). Subcultivation was carried out every three weeks. Fourteen days before the bioassay, the callus tissue was transferred to the media without 6-benzylaminopurine (BAP). Biological activity was determined from the increase in fresh callus weight after four weeks of cultivation. Five replicates were prepared for each cytokinin concentration and the entire test was repeated twice. From the obtained data, the concentration with highest activity was selected for each compound tested. Relative activity of the compound at this concentration was calculated (Tab. 6). The activity obtained for 10^−4 M 6-benzylaminopurine (BAP) was postulated as 100%. The cytokinins to be tested were dissolved in dimethylsulfoxide (DMSO) and the solution brought up to 10^−3M with distilled water. This stock was further diluted in the respective media used for the biotest to concentrations ranging from 10^−8M to 10^−4M.

[2] = system: promyelocytic HL-60 leukemia; experiment: Calcein AM cytotoxicity, HL60; format: cell-based, human; conditions: read-out: IC 50, HL60
Excerpt: (§1) One of the parameters used, as the basis for cytotoxicity assays, is the metabolic activity of viable cells. For example, a microtiter assay, which uses the Calcein AM, is now widely used to quantitate cell proliferation and cytotoxicity. For instance, this assay is used in drug screening programs and in chemosensitivity testing. Because only metabolically active cells cleave Calcein AM, these assays detect viable cells exclusively. The quantity of reduced Calcein AM corresponds to the number of vital cells in the culture.
(§2) The cells were maintained in Nunc/Corning 80 cm^2 plastic tissue culture flasks and cultured in cell culture medium (DMEM with 5 g/l glucose, 2 mM glutamine, 100 U/ml penicillin, 100 μg/ml streptomycin, 10% fetal calf serum and sodium bicarbonate).
(§3) The cell suspensions that were prepared and diluted according to the particular cell type and the expected target cell density (2.500-30.000 cells per well based on cell growth characteristics) were added by pipette (80 μl) into 96/well microtiter plates. Inoculates were allowed a pre-incubation period of 24 hours at 37° C. and 5% CO2 for stabilisation. Four-fold dilutions of the intended test concentration were added at time zero in 20 μl aliquots to the microtiter plate wells. Usually, test compound was evaluated at six 4-fold dilutions. […] All drug concentrations were examined in duplicates. Incubations of cells with the test compounds lasted for 72 hours at 37° C., in 5% CO2 atmosphere and 100% humidity. At the end of incubation period, the cells were assayed by using the Calcein AM. Ten microliters of the stock solution were pipetted into each well and incubated further for 1 hours. Fluorescence (FD) was measured with the Labsystem FIA Reader Fluoroscan Ascent (UK).

[3] = system: breast carcinoma cell line MCF-7; experiment: Calcein AM cytotoxicity, MCF7; format: cell-based, human; conditions: read-out: IC 50, MCF7
Excerpt: as §1, §2, §3

K-562 = experiment: Calcein AM cytotoxicity, K-562; format: cell-based; conditions: read-out: IC 50, K-562
Excerpt: as §1, §2, §3

[4] = system: Triticum aestivum cv. Hereward leaf tips; experiment: Retention of chlorophyll in excised wheat leaf tips; format: in vivo; conditions: chlorophyll retention at the concentration with highest activity
Experimental: Seeds of winter wheat, Triticum aestivum cv. Hereward, were washed under running water for 24 hours and then sown on vermiculite soaked with Knop's solution. They were placed in the grown chamber at 25° C. with a 16/8 h light period at 50 μmol.m^−2.s^−1. After 7 days, the first leaf was fully developed and the second leaf had started to grow. A tip section of the first leaf, approximately 35 mm long, was removed from 5 seedlings and trimmed slightly to a combined weight of 100 mg. The basal ends of the five leaf tips were placed in the wells of a microtiter polystyrene plate containing 150 μl of a cytokinin solution each. The entire plate was inserted into a plastic box lined with paper tissues soaked in distilled water to prevent leaf sections from drying out. After a 96 h incubation in the dark at 25° C., the leaves were removed and chlorophyll extracted by heating at 80° C. for 10 min in 5 ml of 80% ethanol (v/v). The sample volume was then restored to 5 ml by the addition of 80% ethanol (v/v). The absorbency of the extract was recorded at 665 nm. In addition, chlorophyll extracts from fresh leaves and leaf tips incubated in deionised water were measured. From the obtained data, the concentration with highest activity was selected for each compound tested. Relative activity of the compound at this concentration was calculated (Tab. 6). The activity obtained for 10^−4 M 6-benzylaminopurine (BAP) was postulated as 100%. The values shown are means of five replicates and the whole experiment was repeated twice. The cytokinins to be tested were dissolved in dimethylsulfoxide (DMSO) and the solution brought up to 10^−3M with distilled water. This stock was further diluted in distilled water to concentrations ranging from 10^−8M to 10^−4M.

[5] = system: Amaranthus caudatus cotyledon/hypocotyl explants; experiment: Amaranthus bioassay, betacyanin content; format: in vivo; conditions: betacyanin content at the concentration with highest activity
Experimental: Standard Amaranthus bioassay was performed with several modifications. The seeds of Amaranthus caudatus var. atropurpurea were surface-sterilised in 10% N-chlorobenzenesulfonamide (w/v) for 10 min and washed 5 times in deionized water. They were placed in 14 cm Petri dishes containing paper tissues saturated with deionized water. After 72 h of cultivation at 25° C. in darkness, the roots of the seedlings were cut off. The explants, consisting of two cotyledons and hypocotyls, were placed in 5 cm Petri dishes on two layers of filter paper soaked in 1 ml of incubation medium containing 10 μmol NA2HPO4-KH2PO4, pH 6.8, 5 μmol tyrosine and the cytokinin to be tested. There were 20 explants per dish. The procedure was carried out under a green safe light in a darkroom. After a 48 h of incubation at 25° C. in darkness, betacyanin was extracted by freezing the explants in 4 ml […] acetic acid. The concentration of betacyanin was determined by comparing the absorbance at 537 nm and 620 nm as follows: ΔA=[…] nm-A620 nm. From the obtained data, the concentration with highest activity was selected for each compound tested. Relative activity of the compound at this concentration was calculated (Tab. 6). […] The values shown in table 8 are means of five replicates and the entire test was repeated twice. The cytokinins to be tested were dissolved in dimethylsulfoxide (DMSO) and the solution brought up to 10^-3M with distilled water. This stock was further diluted in the respective media used for the biotest to concentrations ranging from 10^-8M to 10^-4M.

[6] = system: T-lymphoblastic leukemia cell line CEM; experiment: Calcein AM cytotoxicity, CEM; format: cell-based, human
Excerpt: as §1, §2, §3

B16-F0 melanoma = experiment: Calcein AM cytotoxicity, B16-F0; format: cell-based; conditions: Mus musculus, B16F0, 72 h, read-out: IC 50, B16-F0
Excerpt: as §1
(§4) Human T-lymphoblastic leukemia cell line CEM; promyelocytic HL-60 and monocytic U937 leukemias; breast carcinoma cell lines MCF-7, BT549, MDA-MB-231; glioblastoma U87MG cells; cervical carcinoma cells HELA; sarcoma cells U2OS and Saos2; hepatocellular carcinoma HepG2; mouse fibroblasts NIH3T3; mouse immortalized bone marrow macrophages B2.4 and B10A.4; P388D1 and L1210 leukemia; B16 and B16F10 melanomas were used for routine screening of compounds. The cells were maintained in Nunc/Corning 80 cm^2 plastic tissue culture flasks and cultured in cell culture medium (DMEM with 5 g/l glucose, 2 mM glutamine, 100 U/ml penicillin, 100 μg/ml streptomycin, 10% fetal calf serum and sodium bicarbonate).
(§5) The cell suspensions that were prepared and diluted according to the particular cell type and the expected target cell density (2.500-30.000 cells per well based on cell growth characteristics) were added by pipette (80 μl) into 96/well microtiter plates. Inoculates were allowed a pre-incubation period of 24 hours at 37° C. and 5% CO2 for stabilisation. Four-fold dilutions of the intended test concentration were added at time zero in 20 μl aliquots to the microtiter plate wells. Usually, test compound was evaluated at six 4-fold dilutions. In routine testing, the highest well concentration was […], but it can be the matter of change dependent on the agent. All drug concentrations were examined in duplicates. Incubations of cells with the test compounds lasted for 72 hours at 37° C., in 5% CO2 atmosphere and 100% humidity. At the end of incubation period, the cells were assayed by using the Calcein AM. Ten microliters of the stock solution were pipetted into each well and incubated further for 1 hours. Fluorescence (FD) was measured with the Labsystem FIA Reader Fluoroscan Ascent (UK). The tumour cell survival (GI50) was calculated using the following equitation: TCS═(FDdrug exposed well/mean FDcontrol wells)×100%. The GI50 value, the drug concentration lethal to 50% of the tumour cells, was calculated from the obtained dose response curves (FIG. 1).

[7] = system: human diploid fibroblasts (HCA cells); experiment: Senescence, beta-galactosidase staining of human diploid fibroblasts; format: cell-based
Experimental: In this example, human diploid fibroblasts (HCA cells of various passage levels: passage 25—designated HCA25; passage 45—designated HCA45; passage 80—designated HCA80) were stained for β-galactosidase activity. The medium used for cell cultivation was removed, the cells were washed twice in […], and fixed in 2-3 ml of fixing solution comprised of a 2% formaldehyde and 0.2% glutaraldehyde in PBS. The cells were incubated at room temperature for 5 minutes, then washed twice with PBS. The cells were subsequently incubated at 37° C. (without CO2) for 1 to 16 hours in 2-3 ml of a solution comprising potassium ferricyanide (5 mM), potassium ferrocyanide (5 mM), MgCl2 (2 mM), X-gal (5-bromo-4-chloro-3-indolyl-β-D-galactopyranoside) (1 mg/ml), in citric/phosphate buffer, pH 6.0). […] In this experiment, senescent cells, but not other cells were stained blue due to the action of β-galactosidase on the substrate (FIG. 4).

HOS = experiment: Calcein AM cytotoxicity, HOS; format: cell-based
Excerpt: as §1, §4, §5

Row | SMILES | Activity (%) [10^−4 mol · l^−1 BAP = 100%] [1] | IC50 ([2]; Homo sapiens, HL-60, 72 h) | IC50 ([3]; Homo sapiens, MCF7, 72 h) | IC50 (K-562; Homo sapiens, K562, 72 h) | Activity (%) [10^−4 mol · l^−1 BAP = 100%] [4] | activity (%) [10^−5 mol · l^−1 BAP = 100%] [5] | IC50 ([6]; Homo sapiens, 72 h) | IC50 (B16-F0 melanoma) | other results
1 | COc1cc(OC)c(CNc2ncnc3nc[nH]c23)c(OC)c1 [6-(2,4,6-trimethoxybenzylamino)purine] | 13 (±6) % | 153 µM | > 167 µM | > 167 µM | 6 (±4) % | 3 (±3) % | 63.6 µM | > 167 µM | IC50 ([6]; 72 hours, listed as 2,4,6triMeO BAP): 105 µM
2 | Clc1ccccc1CNc1ncnc2nc[nH]c12 [6-(2-chlorobenzylamino)purine] | 93 (±4) % | – | – | – | 116.5 (±6.5) % | 109 (±8) % | – | 16.9 µM | –
3 | Oc1ccc(CNc2ncnc3nc[nH]c23)cc1O [6-(3,4-dihydroxybenzylamino)purine] | 4 (±1) % | > 167 µM | > 167 µM | > 167 µM | – | 8 (±3) % | > 167 µM | > 167 µM | SENESCENT CELLS (%) HCA25 ([7]; passage 25): 5%; SENESCENT CELLS (%) HCA45 ([7]; passage 45): 4%; SENESCENT CELLS (%) HCA80 ([7]; passage 80): 29%
4 | Clc1cccc(CNc2ncnc3nc[nH]c23)c1 [6-(3-chlorobenzylamino)purine] | 94 (±6) % | – | – | > 167 µM | 82 (±2) % | 96 (±5) % | – | – | IC50 (HOS; Homo sapiens, HOS, 72 h): > 167 µM
5 | COc1ccc(CNc2ncnc3nc[nH]c23)cc1O [6-(3-hydroxy-4-methoxybenzylamino)purine] | – | > 167 µM | > 167 µM | > 167 µM | – | 24 (±1) % | > 167 µM | > 167 µM | –
6 | Clc1ccc(CNc2ncnc3nc[nH]c23)cc1 [6-(4-chlorobenzylamino)purine] | 64 (±8) % | > 167 µM | > 167 µM | > 167 µM | 64.5 (±13.5) % | 35 (±7) % | > 167 µM | – | IC50 (HOS; Homo sapiens, HOS, 72 h): > 167 µM
7 | COc1cc(CNc2ncnc3nc[nH]c23)ccc1O [6-(4-hydroxy-3-methoxybenzylamino)purine] | – | > 167 µM | > 167 µM | > 167 µM | – | 10 (±2) % | > 167 µM | > 167 µM | –
8 | O=[N+]([O-])c1ccc(CNc2ncnc3nc[nH]c23)cc1 [6-(4-nitrobenzylamino)purine] | – | > 167 µM | > 167 µM | > 167 µM | 83 (±8) % | 25 (±2) % | > 167 µM | > 167 µM | –
9 | CC(C)=CCNc1ncnc2nc[nH]c12 [IP, isopentenyladenine, reference compound] | – | – | – | – | – | – | – | – | IC50 ([2]; 72 hours): > 167 µM; IC50 ([3]; 72 hours): > 167 µM; IC50 (K-562; 72 hours): 147 µM and 162 µM; IC50 (HOS; 72 hours): > 167 µM; IC50 ([6]; 72 hours): 92.2 µM
10 | c1coc(CNc2ncnc3[nH]cnc23)c1 [Kinetin, reference compound] | – | – | > 167 µM | > 167 µM | – | – | – | – | IC50 (K-562; Homo sapiens, K562, 72 hours): 164 µM; IC50 (HOS; Homo sapiens, HOS, 72 h): > 167 µM; IC50 ([6]; Homo sapiens, 72 hours): 155 µM
11 | C/C(=C/CNc1ncnc2nc[nH]c12)CO [cis Z, reference compound] | – | – | – | – | – | – | – | – | IC50 ([2]; 72 hours): > 167 µM; IC50 ([3]; 72 hours): > 167 µM; IC50 (HOS; 72 hours): > 167 µM; IC50 ([6]; 72 hours): > 167 µM

Source: US8552013B2, “Heterocyclic compounds based on N6-substituted adenine, methods of their preparation, their use for preparation of drugs, cosmetic preparations and growth regulators, pharmaceutical preparations, cosmetic preparations and growth regulators containing these compounds” (USTAV Experimentalni Botaniky Akademie Ved Ceske Republiky, priority 2001, dated 2013)
